{"source": "paper PMC8413292", "about": "“Small-molecule polymerase inhibitor protects non-human primates from measles and reduces shedding” (Nature Communications, 2021)", "key": {"MeV": {"system": "MeV", "conditions": "depending on the MeV-strain; read-out: in vitro EC50; cited from earlier work"}, "[1]": {"system": "MV/FrankfurtMain.DEU/17.11 (genotype D8)", "experiment": "Clinical signs (rash score) in MeV-infected squirrel monkeys", "conditions": "for animals that developed spots or mild rash in the face or inguinal region: 50 mg/kg b.i.d. 14 days", "protocol": "All animal experiments were carried out in compliance with the regulations of German animal protection laws and authorized by the Regierungspräsidium Darmstadt, Germany (Dezernat V54 – Veterinärwesen und Verbraucherschutz, Hilpertstrasse 31, 64295 Darmstadt). Adult male and female squirrel monkeys (Saimiri sciureus) were obtained from BioPRIM, 31450 Baziege, or CNRS 0846 Primatologie, 13790 Rousset, France. Each experimental group was housed in a separate room, and animals of the same sex were caged together within the respective groups. For the single-dose pharmacokinetic experiment, animals were anesthetized, and the drug was given through a stomach tube at a concentration of 50 mg/kg bodyweight. Blood samples were collected after 15, 30, and 60 min, and 2, 3, 6, and 24 h. For efficacy assessment, groups of 6 animals were left untreated or treated with 50 mg/kg of ERDRP-0519 twice daily for two weeks, starting either 12 h before or 3 or 7 days after intranasal infection with 10^6 TCID50 of MV/FrankfurtMain.DEU/17.11. Clinical signs, rectal temperature, and weight were recorded daily, and throat swabs and blood samples were collected before infection and twice weekly thereafter. On day 21 post-infection, the animals were euthanized, necropsied, and samples were collected for histological analysis."}, "[2]": {"system": "canine distemper virus (CDV)", "conditions": "lethal CDV-ferret model; cited from earlier work"}, "MeV N gene RNA": {"system": "MeV N gene RNA", "experiment": "Quantitative RT-PCR of MeV N-gene RNA in lymph nodes", "assay_type": "in vivo", "conditions": "for MeV N-gene RNA levels in lymph nodes versus untreated: 21 days post-infection", "protocol": "Organs (21 days post-infection) and PBMCs (twice a week) were frozen in RNAlater (Qiagen) at −80 °C until further processing. For the deceased animal, organs were frozen in RNAlater at the day of death. Lymph nodes were thawed on ice, transferred to TRIzol (ambion life technologies) and homogenized using a tissue homogenizer. Total RNA of lymph nodes and PBMCs was extracted following the TRIzol manufacturer’s protocol. RNA (1000 ng for lymph nodes; 110 ng for PBMCs) was then subjected to reverse transcription using random hexamer primers and Superscript III reverse transcriptase in accordance with the manufacturer’s protocols. Subsequent quantitative PCR (qPCR) was carried out using primer pairs specific for a fragment in the MeV N gene[23] or GAPDH gene(Supplementary Table 2) and the PowerUp SYBR Green Master Mix (Thermo Fisher Scientific) in an Applied Biosystems 7500 Real-Time PCR system. Samples were normalized for GAPDH. The comparative (ΔΔCt) Ct method was applied to determine relative amounts of N-encoding RNA present in samples from treated animals compared to those obtained from untreated control animals (lymph nodes) or compared to those obtained from untreated control animals on day 7 post-infection (peak PBMC virus titer)."}}, "note": "Where “and” joins values, the source holds several entries; their conditions need not be identical. Equal entries are not always repeated.", "data": [{"molecule": "Cn1nc(C(F)(F)F)cc1C(=O)Nc1ccc(S(=O)(=O)N2CCCC[C@H]2CCN2CCOCC2)cc1", "note": "[ERDRP-0519]", "values": [{"measurement": "EC50", "setting": "MeV", "result": "70 to 300", "unit": "nM"}, {"measurement": "severe or generalized rash", "setting": "[1]; all treated groups", "result": "none of the treated animals experienced severe or generalized rash"}, {"measurement": "animals that developed spots or mild rash in the face or inguinal region", "setting": "[1]; day 3 therapeutic group", "result": "Four of six animals"}, {"measurement": "deaths during the study", "setting": "[1]; day 3 therapeutic group, day 15 post-infection, authors conclude unrelated to drug or MeV", "result": "One animal in the day 3 therapeutic group developed mild diarrhea and deceased"}, {"measurement": "animals that developed spots or mild rash in the face or inguinal region", "setting": "[1]; day 7 therapeutic group", "result": "all animals"}, {"measurement": "measles-typical clinical signs", "setting": "[1]; prophylactic group, 50 mg/kg b.i.d. 14 days from 12 h prior to infection", "result": "remained free of measles-typical clinical signs"}, {"measurement": "survival after post-exposure therapeutic dosing", "setting": "[2]", "result": "complete survival of all treated animals"}, {"measurement": "Lymph node fold difference, group mean (Mean 2)", "setting": "MeV N gene RNA; prophylactic", "result": 0.06859}, {"measurement": "fold difference (Lymph node MeV N RNA), individual animals", "setting": "MeV N gene RNA; prophylactic", "result": "0.002631 and 0.0102 and 0.1018 and 0.01292 and 0.2776 and 0.00638"}, {"measurement": "MeV N-gene RNA levels in lymph nodes versus untreated", "setting": "MeV N gene RNA; prophylactic group, p = 0.0295", "result": "significantly decreased"}, {"measurement": "Lymph node fold difference, group mean (Mean 2)", "setting": "MeV N gene RNA; therapeutic (d3)", "result": 0.1137}, {"measurement": "fold difference (Lymph node MeV N RNA), individual animals", "setting": "MeV N gene RNA; therapeutic (d3)", "result": "0.5644 and 0.005805 and 0.02288 and 0.01111 and 0.0007117 and 0.07727"}, {"measurement": "Lymph node fold difference, group mean (Mean 2)", "setting": "MeV N gene RNA; therapeutic (d7)", "result": 0.7008}, {"measurement": "fold difference (Lymph node MeV N RNA), individual animals", "setting": "MeV N gene RNA; therapeutic (d7)", "result": "1.441 and 0.8274 and 0.2474 and 0.8349 and 0.2786 and 0.5749"}, {"measurement": "MeV N-gene RNA levels in lymph nodes versus untreated", "setting": "MeV N gene RNA; therapeutic day 3 group, p = 0.0346", "result": "significantly decreased"}, {"measurement": "Lymph node fold difference, Mean Diff,", "setting": "MeV N gene RNA; untreated vs. prophylactic", "result": 1.828}, {"measurement": "Lymph node fold difference, Mean Diff,", "setting": "MeV N gene RNA; untreated vs. therapeutic (d3)", "result": 1.783}, {"measurement": "Lymph node fold difference, Mean Diff,", "setting": "MeV N gene RNA; untreated vs. therapeutic (d7)", "result": 1.196}]}]}
